Source: ChEMBL document CHEMBL4680368, “Myeloid Cell Leukemia-1 Inhibitors as Emerging Cancer Treatment” (ACS Med Chem Lett, 2021)

target: Induced myeloid leukemia cell differentiation protein Mcl-1 (Homo sapiens, UniProt Q07820); assay: Inhibition of Terbium-labeled BIM BH3 peptide binding to MCL1 (unknown origin) incubated for 60 mins by HTRF assay; settings: not given
Sequence (Q07820 whole entry): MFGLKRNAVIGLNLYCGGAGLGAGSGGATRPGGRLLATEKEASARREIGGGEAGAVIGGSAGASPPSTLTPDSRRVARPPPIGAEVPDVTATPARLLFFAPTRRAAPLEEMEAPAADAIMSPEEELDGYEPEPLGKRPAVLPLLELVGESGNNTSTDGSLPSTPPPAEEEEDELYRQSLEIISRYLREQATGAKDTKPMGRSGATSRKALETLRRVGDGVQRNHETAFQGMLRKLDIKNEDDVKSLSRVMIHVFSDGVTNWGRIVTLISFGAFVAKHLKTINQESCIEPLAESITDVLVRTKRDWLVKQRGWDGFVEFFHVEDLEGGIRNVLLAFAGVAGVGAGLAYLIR

| SMILES | Ki |
| --- | --- |
| C[C@@H]1[C@@H](C)C/C=C(\F)CN2CC[C@H]2CN2C[C@@]3(CCCc4cc(Cl)ccc43)COc3ccc(cc32)C(=O)NS1(=O)=O | 0.84 nM |
| COCCOCC1(COCCOC)/C(F)=C/C[C@H](C)[C@@H](C)S(=O)(=O)NC(=O)c2ccc3c(c2)N(C[C@@H]2CCN21)C[C@@]1(CCCc2cc(Cl)ccc21)CO3 | 0.25 nM |

test system: not listed separately; assay: Induction of apoptosis in human MOLP8 cells assessed as increase in caspase 3/7 activation incubated for 2 hrs by luminometric caspase-glo 3/7 assay; format: functional, cell-based; settings: MOLP-8, 2 h

| SMILES | AC50 |
| --- | --- |
| C[C@@H]1[C@@H](C)C/C=C(\F)CN2CC[C@H]2CN2C[C@@]3(CCCc4cc(Cl)ccc43)COc3ccc(cc32)C(=O)NS1(=O)=O | 692 nM |
| C[C@@H]1[C@@H](C)C/C=C(\F)[C@H](COCC(=O)O)N2CC[C@H]2CN2C[C@@]3(CCCc4cc(Cl)ccc43)COc3ccc(cc32)C(=O)NS1(=O)=O | 5990 nM |
| C[C@@H]1[C@@H](C)C/C=C(\F)[C@H](CN2CCN3CCOC[C@@H]3C2)N2CC[C@H]2CN2C[C@@]3(CCCc4cc(Cl)ccc43)COc3ccc(cc32)C(=O)NS1(=O)=O | 120 nM |
| C[C@@H]1[C@@H](C)C/C=C(\F)C(CO)(CO)N2CC[C@H]2CN2C[C@@]3(CCCc4cc(Cl)ccc43)COc3ccc(cc32)C(=O)NS1(=O)=O | 2390 nM |
| C[C@@H]1[C@@H](C)C/C=C(\F)[C@H](CO)N2CC[C@H]2CN2C[C@@]3(CCCc4cc(Cl)ccc43)COc3ccc(cc32)C(=O)NS1(=O)=O | 144 nM |
| C[C@@H]1[C@@H](C)C/C=C(\F)[C@H](COc2ccccn2)N2CC[C@H]2CN2C[C@@]3(CCCc4cc(Cl)ccc43)COc3ccc(cc32)C(=O)NS1(=O)=O | 1490 nM |
| C[C@@H]1[C@@H](C)C/C=C(\F)[C@H](COCCCN2CCOCC2)N2CC[C@H]2CN2C[C@@]3(CCCc4cc(Cl)ccc43)COc3ccc(cc32)C(=O)NS1(=O)=O | 231 nM |
| COC[C@H]1/C(F)=C/C[C@H](C)[C@@H](C)S(=O)(=O)NC(=O)c2ccc3c(c2)N(C[C@@H]2CCN21)C[C@@]1(CCCc2cc(Cl)ccc21)CO3 | 181 nM |
| COCCCOC[C@H]1/C(F)=C/C[C@H](C)[C@@H](C)S(=O)(=O)NC(=O)c2ccc3c(c2)N(C[C@@H]2CCN21)C[C@@]1(CCCc2cc(Cl)ccc21)CO3 | 274 nM |
| COCCOCC1(COCCOC)/C(F)=C/C[C@H](C)[C@@H](C)S(=O)(=O)NC(=O)c2ccc3c(c2)N(C[C@@H]2CCN21)C[C@@]1(CCCc2cc(Cl)ccc21)CO3 | 152 nM |
